The values that follow come from ChEMBL document CHEMBL1201862, “PubChem BioAssay data set” (2004).

Among the test systems are MOLT-4; RXF 393; SF-539; LOX IMVI; HCT-116; UACC-257; SK-MEL-5; OVCAR-8; OVCAR-4; HCT-15; Malme-3M; SNB-19; OVCAR-5; HOP-62; SK-MEL-2; U-251.
Common to all, as to test: NCI anticancer screen, dose series, 48 h

Several values for one entry are separate records, joined by “and”; a condition that tells them apart may be missing. Identical values can stand only once.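 96-well plates; 48 h exposure; 5 concentrations. Endpoints by linear interpolation between flanking doses. Not reached: highest tested concentration assigned. GI50 marks 50% less growth.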 Activity calls are given as the source filed them. No stated cut-off is given here; in the data, active = GI50 up to about 1.1 µM and inactive = higher. A value given as a limit tells only on which side of the number the result lay.

With `NC(=O)/C(=N\NC(=O)C[n+]1ccccc1)C1NC(=O)NC1=O` (stereo not given), the GI50 in the assay on MOLT-4, in the assay on RXF 393, in the assay with SF-539, in the assay on LOX IMVI, in the assay on HCT-116 and in the assay with UACC-257 was > 100 µM (inactive) throughout. Besides, the GI50 in the assay on SK-MEL-5 was > 100 µM (inactive); in the assay with OVCAR-8, > 100 µM (inactive); in the assay with OVCAR-4, > 100 µM (inactive); in the assay on HCT-15, above 100 µM; in the assay with Malme-3M it was > 100 µM (inactive); in the assay on SNB-19 it was > 100 µM (inactive). For the same compound, the GI50 in the assay with OVCAR-5, in the assay on HOP-62 and in the assay with SK-MEL-2 was > 100 µM (inactive) each time.

With `CNC(=O)CN(CC(N)=O)C(=O)NC`, the GI50 in the assay with MOLT-4, in the assay on RXF 393, in the assay on SF-539, with LOX IMVI, with U-251 and with SK-MEL-5 was > 100 µM (inactive) each time. For the same compound, the GI50 is > 100 µM (inactive) in the assay on OVCAR-8; > 100 µM (inactive) in the assay on OVCAR-4; above 100 µM in the assay with HCT-15; > 100 µM (inactive) in the assay on Malme-3M; > 100 µM (inactive) with SNB-19; > 100 µM (inactive) with OVCAR-5. In addition, the GI50 in the assay on HOP-62 and in the assay on SK-MEL-2 was > 100 µM (inactive) in each case.

Regarding `O=C(CCc1n[nH]c(=S)o1)Nc1cc(Cl)c(Cl)cc1Cl`, the GI50 in the assay with MOLT-4 was 45 µM (inactive); in the assay with SF-539, 52.7 µM (inactive); with HCT-116, 15.9 µM (inactive); with U-251 it was 35.2 µM (inactive); in the assay on UACC-257, > 100 µM (inactive); with SK-MEL-5, 50.9 µM (inactive). Further, the GI50 is 51.2 µM (inactive) with OVCAR-8; > 100 µM (inactive) in the assay with OVCAR-4; 22.2 µM in the assay on HCT-15; > 100 µM (inactive) in the assay with Malme-3M; > 100 µM (inactive) in the assay on SNB-19; 54.3 µM (inactive) in the assay on OVCAR-5. Besides, the GI50 in the assay on HOP-62 was 50.8 µM (inactive).

Turning to `O=c1[nH]cnc2c1nnn2C1C=C(CO)C(O)C1O` (stereo not given), the GI50 in the assay with MOLT-4 is > 100 µM (inactive); in the assay on RXF 393, > 100 µM (inactive); in the assay on SF-539, > 100 µM (inactive); in the assay with LOX IMVI it was 30.8 µM (inactive); in the assay with HCT-116 it was 53.7 µM (inactive); with U-251, > 100 µM (inactive). The GI50 in the assay with UACC-257 is > 100 µM (inactive); in the assay on SK-MEL-5, > 100 µM (inactive); in the assay with OVCAR-8, > 100 µM (inactive); in the assay with OVCAR-4, > 100 µM (inactive); in the assay with HCT-15, above 100 µM; in the assay with SNB-19, > 100 µM (inactive). Besides, the GI50 in the assay with OVCAR-5, in the assay on HOP-62 and in the assay on SK-MEL-2 was > 100 µM (inactive) throughout.

As for `C[C@]12CCC3[C@@H](CC[C@@H]4c5nonc5CC[C@]34C)C1CC[C@@H]2O` (stereo not given in full), the GI50 in the assay on MOLT-4 was 23.3 µM (inactive); in the assay with RXF 393, 24.8 µM (inactive); in the assay on SF-539, 17.4 µM (inactive); in the assay with LOX IMVI it was 19.6 µM (inactive); in the assay on U-251, 19.9 µM (inactive); with UACC-257, 19.8 µM (inactive). The GI50 is 18.4 µM (inactive) with SK-MEL-5; 35.8 µM (inactive) with OVCAR-8; 27.3 µM (inactive) with OVCAR-4; 28.4 µM in the assay with HCT-15; 24.5 µM (inactive) in the assay with Malme-3M; 41.6 µM (inactive) with SNB-19. The GI50 with OVCAR-5 is > 100 µM (inactive); in the assay with HOP-62 it was 28.4 µM (inactive); in the assay on SK-MEL-2, 22.6 µM (inactive).

As to `COc1cc(/C=C2\NC(=S)C3Cc4c(OC)c(C)c(OC)c(OC)c4C2N3C)c(OC)c(C)c1OC` (stereo not given), the GI50 in the assay with MOLT-4 was 21.2 µM (inactive); in the assay with RXF 393, 24.7 µM (inactive); in the assay on SF-539, > 100 µM (inactive); in the assay on LOX IMVI, 48 µM (inactive); in the assay with HCT-116, 33.7 µM (inactive); with U-251, 45.1 µM (inactive). In addition, the GI50 in the assay with UACC-257 was 22.2 µM (inactive); in the assay on SK-MEL-5 it was 24.5 µM (inactive); with OVCAR-8 it was 32.5 µM (inactive); in the assay on OVCAR-4 it was > 100 µM (inactive); with Malme-3M it was 29 µM (inactive); in the assay on SNB-19, 65.3 µM (inactive). Moreover, the GI50 in the assay with OVCAR-5 was > 100 µM (inactive); in the assay with HOP-62 it was > 100 µM (inactive); in the assay with SK-MEL-2, 36.2 µM (inactive).

Regarding `CCOC(=O)C(C(=O)c1ccccc1-c1ccccc1C(=O)O)=P(c1ccccc1)(c1ccccc1)c1ccccc1`, the GI50 in the assay on MOLT-4 is 24.2 µM (inactive); with RXF 393, 37.2 µM (inactive); with SF-539, 18.9 µM (inactive); with LOX IMVI, 20.3 µM (inactive); in the assay on HCT-116, 18.7 µM (inactive); in the assay on U-251 it was 18.3 µM (inactive). The GI50 in the assay on UACC-257 was 25.5 µM (inactive); in the assay on SK-MEL-5, 15.5 µM (inactive); in the assay on OVCAR-8 it was 16.9 µM (inactive); in the assay with OVCAR-4, 18 µM (inactive); in the assay with HCT-15, 25.7 µM; in the assay with Malme-3M, 22.4 µM (inactive). For the same compound, the GI50 is 25.8 µM (inactive) in the assay on SNB-19, 18.8 µM (inactive) with HOP-62 and 20.6 µM (inactive) with SK-MEL-2.

As to `CCN(CC)CC(C)(C)C(=O)/C=C/c1cccc(/C=C/C(=O)C(C)(C)CN(CC)CC)c1`, the GI50 in the assay on MOLT-4 was 0.27 µM (active); with RXF 393 it was 0.433 µM (active); with SF-539 it was 1.05 µM (active); with LOX IMVI, 0.184 µM (active); in the assay with HCT-116, 0.361 µM (active); in the assay with U-251, 0.219 µM (active). Further, the GI50 in the assay on UACC-257 was 1.22 µM (inactive); in the assay with SK-MEL-5, 1.59 µM (inactive); in the assay with OVCAR-8, 0.333 µM (active); in the assay with OVCAR-4 it was 0.442 µM (active); in the assay with HCT-15 it was 0.461 µM; in the assay with Malme-3M it was 1.59 µM (inactive). The figures for the GI50 in the assay with SNB-19, in the assay with OVCAR-5 and with HOP-62 were 1.79 µM (inactive), 1.63 µM (inactive) and 2.31 µM (inactive), respectively.

As for `Cc1cc2c(c(C#N)c1C)NC(=O)CCC2=O`, the GI50 in the assay on MOLT-4 is > 100 µM (inactive); in the assay on RXF 393, 64 µM (inactive); in the assay on SF-539, > 100 µM (inactive); in the assay on HCT-116, > 100 µM (inactive); in the assay with U-251, > 100 µM (inactive); in the assay with UACC-257, > 100 µM (inactive). The GI50 in the assay with OVCAR-8 is > 100 µM (inactive); in the assay with OVCAR-4, > 100 µM (inactive); in the assay with HCT-15 it was above 100 µM; with HOP-62, > 100 µM (inactive); in the assay on SK-MEL-2 it was > 100 µM (inactive).

Consider `C=CC1(C(=O)O)CCC(C(C)(C)C)CC1` (stereo not given), for which the GI50 in the assay with MOLT-4, with RXF 393, with SF-539, with HCT-116, with U-251 and with UACC-257 was > 100 µM (inactive) in each case. The GI50 is > 100 µM (inactive) with SK-MEL-5; > 100 µM (inactive) in the assay with OVCAR-8; > 100 µM (inactive) in the assay with OVCAR-4; above 100 µM in the assay with HCT-15; > 100 µM (inactive) with Malme-3M; > 100 µM (inactive) in the assay with SNB-19. Further, the GI50 in the assay on OVCAR-5, in the assay with HOP-62 and in the assay with SK-MEL-2 was > 100 µM (inactive) each time.

In the case of `O=C(COc1ccccc1Cl)N1N=C(c2ccc(Cl)cc2)CC1(O)c1ccccc1` (stereo not given), the GI50 with MOLT-4, with SF-539, in the assay on LOX IMVI, in the assay with HCT-116, with U-251 and with UACC-257 was > 100 µM (inactive) throughout. For the same compound, the GI50 in the assay on OVCAR-8 is > 100 µM (inactive); in the assay on OVCAR-4, > 100 µM (inactive); with HCT-15, above 100 µM; in the assay with Malme-3M, > 100 µM (inactive); in the assay with SNB-19, > 100 µM (inactive); in the assay on OVCAR-5, > 100 µM (inactive). Also, the GI50 in the assay on HOP-62 and in the assay on SK-MEL-2 was > 100 µM (inactive) throughout.

Turning to `C1=Cc2nc1c(-c1ccncc1)c1ccc([n-]1)c(-c1ccncc1)c1nc(c(-c3ccncc3)c3ccc([n-]3)c2-c2ccncc2)C=C1.[Zn+2]`, the GI50 in the assay on MOLT-4, in the assay with SF-539, with LOX IMVI, with HCT-116, in the assay on U-251 and in the assay with UACC-257 was > 100 µM (inactive) throughout. Besides, the GI50 was > 100 µM (inactive) with SK-MEL-5; > 100 µM (inactive) in the assay on OVCAR-8; > 100 µM (inactive) in the assay on OVCAR-4; above 100 µM in the assay with HCT-15; > 100 µM (inactive) in the assay with Malme-3M; > 100 µM (inactive) with SNB-19. Also, the GI50 with OVCAR-5, with HOP-62 and with SK-MEL-2 was > 100 µM (inactive) in each case.

In the case of `C[C@@H]1CC[C@@]2(C)OC(c3ccccc3)[C@H](CO)N2C1=O` (stereo not given in full), the GI50 in the assay with RXF 393, in the assay on SF-539, in the assay on LOX IMVI, in the assay on HCT-116, with U-251 and with UACC-257 was > 100 µM (inactive) in each case. The GI50 in the assay with SK-MEL-5 is > 100 µM (inactive); with OVCAR-8, > 100 µM (inactive); with OVCAR-4, > 100 µM (inactive); with HCT-15, above 100 µM; with Malme-3M, > 100 µM (inactive); with SNB-19, > 100 µM (inactive). Moreover, the GI50 in the assay with OVCAR-5, with HOP-62 and in the assay with SK-MEL-2 was > 100 µM (inactive) each time.

On to `O=c1ncccn1[C@@H]1O[C@H](CO)[C@@H](O)[C@@H]1F`, for which the GI50 is > 100 µM (inactive) with MOLT-4; > 100 µM (inactive) in the assay with RXF 393; > 100 µM (inactive) and > 59.2 µM (inactive) in the assay on LOX IMVI; > 100 µM (inactive) in the assay on U-251; > 100 µM (inactive) with UACC-257; > 100 µM (inactive) in the assay with SK-MEL-5. Further, the GI50 was > 100 µM (inactive) and > 95.9 µM (inactive) with OVCAR-8; > 100 µM (inactive) in the assay on OVCAR-4; > 100 µM (inactive) and > 67.1 µM (inactive) in the assay with Malme-3M; > 100 µM (inactive) in the assay with SNB-19; > 100 µM (inactive) in the assay with OVCAR-5; > 68.5 µM (inactive) in the assay with HOP-62. Moreover, in the assay with SK-MEL-2, the GI50 was > 100 µM (inactive).
